“Also recorded” adds a separate entry of the source.
Tests used:
mutant SDHB protein = assay: Immunoprecipitation of mutant SDHB: ubiquitination and Hsp90 binding; assay type: cell-based, human; conditions: immunoprecipitated ΔSDHB-R49Q (FIG. 14E)
Description: Protein was extracted from cell cultures using IP lysis buffer with Halt proteinase inhibitor cocktail (Thermo Scientific). Four hundred microgram of total protein was precipitated with Flag antibody (1:200, Origene) using a DynaBeads Protein G immunoprecipitation kit (Invitrogen). Proteins were precipitated overnight at 4° C. and eluted for Western blot analysis.

ΔGBA-N370S = assay: Metabolic [35S] pulse chase assay, HeLa cells with ΔGBA-N370S vector; assay type: cell-based, human; conditions: for increase in radioactively labeled protein quantity: N370S mutant; for GBA quantity: both N370S and L444P mutants
Description: Human GBA gene was cloned into pCMV6-Entry vector (Origene; Rockville, Md.). Mutagenesis was performed using a QuikChange Lightning Site-directed mutagenesis kit (Agilent; Santa Clara, Calif.). Mutagenesis reaction was conducted using primers with N370S and L444P mutation sites. For each mutant, the sequence of GBA genes was verified by sequencing the entire coding regions.
Metabolic [^35S] pulse chase assay was performed as previously described with minor modifications (16). A total of 5×10^5 HeLa cells were transfected with GBA vectors through FuGene 6 transfection reagent (Roche; Indianapolis, Ind.). Cells were used for pulse chase assay 24 hr after transfection. Cells were starved in methionine-depleted medium for 15 min followed by 15 min labeling in methionine-free Delbecco's modified Eagle medium (DMEM) supplemented with 10% FBS and 0.2 mCi/mL [^35S]-methionine ([…] specific activity, Perkin Elmer). The cells were then chased in DMEM with 10% FBS and 3 mg/mL methionine. Cells were extracted for protein within various durations after radioactive labeling. Cells were lysed in RIPA lysis buffer containing with Halt proteinase inhibitor cocktail (Thermo; Waltham, Mass.). GBA proteins were purified through immunoprecipitation using 200 ug total lysate with Flag antibody (Origene; Rockville, Md.). Precipitated proteins were resolved on NuPAGE Novex 4-12% Bis-Tris Gel (Invitrogen; Carlesbad, Calif.) and measured by liquid scintillation counting. The gel was fixed and incubated in EN3HANCE (Perkin Elmer; Waltham, Mass.) for 45 min and dried for X-ray film exposure.

mutant GBA (L444P) = assay: Co-immunoprecipitation of GBA: ubiquitination and chaperonin binding; conditions: L444P mutants
Description: Immunoprecipitation was performed using DynaBeads Protein G immunoprecipitation kit (Invitrogen; Carlesbad, Calif.). Cells were harvested and extracted for protein using IP lysis buffer (Thermo; Waltham, Mass.). Two hundred microgram of whole cell protein was precipitated in 4° C. with monoclonal antibody against Flag tag (1:200, Origene; Rockville, Md.). Precipitated protein was eluted and analyzed through Western blotting.

ΔVHL-Y112N = ΔVHL-Y112N stability / half life, Western blot, 786-O cells; assay type: cell-based, human; conditions: ΔVHL-Y112N (FIG. 10E)
Description: Microdissected tissue and cell pellets were lysed in RIPA lysis buffer (Thermo), sonicated and centrifuged. The quantity of protein was determined in the supernatant solution using a Bio-Rad Protein Assay Kit. Proteins were separated by NuPAGE 4-12% Bis-Tris gel (Invitrogen) and transferred to PVDF membranes (Invitrogen). Membranes were blocked in 5% skim dried milk and immunoblotted with primary antibody. Antibodies used for this study: Flag (1:2000, Origene), HA (1:1000, Origene), Ubiquitin (1:1000, Cell Signaling), Hsp70 (1:1000, Sigma), Hsp90 (1:1000, Cell Signaling), TCP1 (1:1000, Sigma), β-Actin (1:2000, Sigma).
VHL deficient cell line 786-O were maintained in Dulbecco's Modified Eagle Media (DMEM, Invitrogen) containing 10% FBS, 100 U/mL penicillin and 100 μg/mL streptomycin. Cells were transfected with VHL or HIF1/2 vectors by using Xtremegene 9 transfection reagent (Roche). For stable transfection, cells were incubated in growth medium supplemented with 0.5 mg/mL G-418 for 10 days followed by serial dilution. Monoclonal cells were collected and gene expression was tested through western blot.
Mutagenesis was performed using QuikChange Lightning Site-Directed Mutagenesis Kit (Agilent). Missense mutations were selected based on frequent mutations in the VHL syndrome. Mutations in the VHL gene were generated in pCMV6-Entry vectors with the full-length wild type VHL gene (Origene). […]

ΔSDHB-L65P = ΔSDHB-L65P protein half-life through CHX treatment, Western blot, HeLa cells; assay type: cell-based, human; conditions: L65P mutant
Description: Western blot analysis was performed as previously described with minor modifications (Zhuang et al, 2011). Microdissected tumor tissue and cell pellets were extracted for protein using RIPA lysis buffer supplemented with Halt proteinase inhibitor cocktail (Thermo Scientific, Rockford, Ill.). Protein was vortexed at 4° C. for 20 min and centrifuged in 12,000 g for 10 min at 4° C. Supernatant was collected and protein quantity was identified through a Bio-Rad (Hercules, Calif.) Protein Assay kit. Equal amount of proteins were separated on NuPAGE 4-12% Bis-Tris gel (Invitrogen, Carlsbad, Calif.) and transferred to PVDF membranes (Invitrogen). Membranes were blocked in 5% skim dried milk in PBST and blotted with primary antibody. Protein expression was identified through chemiluminescence kit (Thermo Scientific). The following antibodies were used: SDHA (1:1,000, Cell Signaling Technology, Beverly, Mass.), SDHB (1:1,000, Sigma-Aldrich, St. Louis Mo.), Flag (1:2,000, Origene, Rockville, Md.), Ubiquitin (1:1,000, Abcam, Cambridge, Mass.), HA (1:2,000, Origene), Hsp90 (1:1,000, Cell Signaling Technology) and β-Actin (1:1,000, Santa Cruz Biotechnology, Inc., Santa Cruz, Calif.).
HeLa cells were maintained in DMEM containing 10% FBS (Invitrogen). Cells were transfected with SDHB vectors by FuGENE 6 transfection reagent (Roche, Indianapolis, Ind.). Medium was changed 4 hours after transfection and cells were maintained 48 hours before cycloheximide (20 μg/mL, Sigma-Aldrich) treatment.
Ubiquitin-HA vector was described previously (Kamitani et al. (1997)). Human wild type SDHB gene was cloned into pCMV6-Entry vector (Origene). Hot spot missense mutations in SDHB related PHEOs/PGLs based on previous findings (Van Nederveen et al. (2006); Henderson et al. (2009); Pawlu et al. (2005)). Mutagenesis was performed based on wild type SDHB vector using a Quikchange Lightning Site-Directed Mutagenesis Kit (Agilent, Santa Clara, Calif.). For each mutant, the sequence of SDHB gene was verified through sequencing the entire coding region of the gene. Vectors were purified through PureLink HiPure Plasmid Maxiprep kit (Invitrogen) for transfection and cell free protein expression.

Row | SMILES | Hsp90 binding to mutant SDHB (mutant SDHB protein) | SDHB mutant protein ubiquitination (mutant SDHB protein) | increase in radioactively labeled protein quantity (ΔGBA-N370S) [%] | GBA quantity (ΔGBA-N370S) | GBA ubiquitination (mutant GBA (L444P)) | Hsp70 binding to GBA (mutant GBA (L444P)) | TCP1 binding to GBA (mutant GBA (L444P)) | stability / degradation of VHL mutant protein (ΔVHL-Y112N) | degradation / loss of mutant SDHB protein (ΔSDHB-L65P)
1 | O=C(CCCCCNC(=O)c1ccccc1S)Nc1cccnc1 [LB-205] | also decreased | decreased SDHB mutant protein ubiquitination | 27 | increased GBA quantity | decreased GBA ubiquitination | no change in TCP1 and Hsp70 binding | without changing the level of TCP1 binding | stabilized the protein | decreased the loss of mutant SDHB
2 | O=C(CCCCCCC(=O)Nc1ccccc1)NO [SAHA, suberoylanilide hydroxamic acid, reference compound] | also decreased | decreased SDHB mutant protein ubiquitination | 12 | increased GBA quantity | decreased GBA ubiquitination | no change in TCP1 and Hsp70 binding | without changing the level of TCP1 binding | stabilized the protein | slowed the degradation of mutant protein; also recorded: decreased the loss of mutant SDHB
